Test results as given in patent US20250059172A1, “INDAZOLE COMPOUND AND PHARMACEUTICAL” (NIPPON SHINYAKU CO., LTD., priority 2021, published 2025).
Structures can show the parent of a compound that is named as a salt.

Tests used:
human mPGES-1 = human mPGES-1 (Homo sapiens (Human), UniProt O14684); assay: mPGES-1 inhibitory activity test; assay type: biochemical; details: microsomes of CHO-K1 cells expressing human mPGES-1, PGH2 1 μM, PGE2 by HTRF; read-out: mPGES-1 inhibition (IC50 nM)
Procedure: mPGES-1 microsomal specimens were prepared by transiently transfecting CHO-K1 cells (DS Pharma Biomedical Co. Ltd) with a plasmid encoding human mPGES-1 cDNA using FuGENE 6 Transfection Reagent (Promega). The prepared mPGES-1 microsome specimens were diluted in potassium phosphate buffer of pH 7.4 comprising 2.5 mM reduced glutathione (Sigma-Aldrich), DMSO solution of a test compound or DMSO was added to a final concentration of 1% of DMSO, and then incubated at 4° C. for 20 minutes. The enzymatic reaction was then initiated by adding a solution of PGH2 (Cayman chemical) substrate of a final concentration 1 μM and incubated at 4° C. for 60 seconds. The reaction was terminated by adding a solution of ferric chloride (STREM CHEMICALS) and citric acid (Wako Pure Chemical Industries) salt to a final concentration of 5 mg/mL and 250 mM, respectively. The formed PGE2 was quantified using the HTRF kit (Cisbio International). Solutions without the test compound were used as positive controls, and solutions without the test compound and microsomal specimens were used as negative controls. 100% activity was defined as production of PGE2 in the positive control minus that in the negative control. The percentage inhibition of production of PGE2 at final concentrations of 10 nM and 100 nM of the test compound was then calculated, or IC50 values were determined using standard methods.

human A549 cells = assay: Inhibition test of PGE2 production using human A549 cells; assay type: cell-based; details: IL-1β stimulated A549 cells, 24 h, PGE2 by HTRF, read-out: A549 cell inhibition of PGE2 production IC50
Procedure: 100 μL of RPMI medium (Sigma) comprising 10% FBS and human A549 cells was seeded in a 96-well plate to […] cells per well, and incubated overnight. The medium was then removed and washed with phosphate-buffered saline, and added to a DMSO solution of the test compound or RPMI medium comprising 3% FBS with DMSO to a final concentration of 0.1% DMSO. After incubation for 60 minutes, IL-1P (5 ng/well, BioLegend) was added to the solution. After incubation at 37° C. for 24 h, PGE2 in the medium was quantified using the HTRF kit (Cisbio International) and PGF2a was also quantified using the EIA kit (Cayman chemical). Solutions without the test compound were used as positive controls, and solutions without the test compound and IL-1β were used as negative controls. 100% activity was defined as production of PGE2 and PGF2a in the positive control minus those in the negative control. IC50 values were then determined using standard methods.

Chain of human mPGES-1 (O14684 whole entry): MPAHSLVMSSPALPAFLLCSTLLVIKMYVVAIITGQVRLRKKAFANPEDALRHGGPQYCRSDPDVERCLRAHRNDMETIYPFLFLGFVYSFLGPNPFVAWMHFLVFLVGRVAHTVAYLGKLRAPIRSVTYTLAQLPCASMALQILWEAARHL

IC50 (human mPGES-1) [nM]	IC50 (human A549 cells) [nM]	SMILES
1.5	4.5	O=C(Nc1cccc2c1cnn2-c1ccc(C(F)(F)F)cc1)c1cc(CNC(=O)C2CC2)ccc1Cl [Example 1, 2-Chloro-5-{[(cyclopropylcarbonyl)amino]methyl}-N-{1-[4-(trifluoromethyl)phenyl]-1H-indazol-4-yl}benzamide]
0.2	6.3	O=C(Nc1cccc2c1cnn2-c1ccccc1)c1cc(CNC(=O)C2CC2)ccc1Cl [Example 2, 2-Chloro-5-{[(cyclopropylcarbonyl)amino]methyl}-N-(1-phenyl-1H-indazol-4-yl)benzamide]
1.3	0.6	Cc1ccc(-n2ncc3c(NC(=O)c4cc(CNC(=O)C5CC5)ccc4Cl)cccc32)cc1 [Example 6, 2-Chloro-5-{[(cyclopropylcarbonyl)amino]methyl}-N-[1-(4-methylphenyl)-1H-indazol-4-yl]benzamide]
1.8	1.6	Cc1cccc(-n2ncc3c(NC(=O)c4cc(CNC(=O)C5CC5)ccc4Cl)cccc32)c1 [Example 7, 2-Chloro-5-{[(cyclopropylcarbonyl)amino]methyl}-N-[1-(3-methylphenyl)-1H-indazol-4-yl]benzamide]
3.9	11.3	O=C(Nc1cccc2c1cnn2-c1ccccn1)c1cc(CNC(=O)C2CC2)ccc1Cl [Example 8, 2-Chloro-5-{[(cyclopropylcarbonyl)amino]methyl}-N-[1-(pyridin-2-yl)-1H-indazol-4-yl]benzamide]
2.2	4.1	Cc1ccccc1-n1ncc2c(NC(=O)c3cc(CNC(=O)C4CC4)ccc3Cl)cccc21 [Example 9, 2-Chloro-5-{[(cyclopropylcarbonyl)amino]methyl}-N-[1-(2-methylphenyl)-1H-indazol-4-yl]benzamide]
2.7	1.1	O=C(Nc1cccc2c1cnn2-c1ccc(C(F)(F)F)nc1)c1cc(CNC(=O)C2CC2)ccc1Cl [Example 12, 2-Chloro-5-{[(cyclopropylcarbonyl)amino]methyl}-N-{1-[6-(trifluoromethyl)pyridin-3-yl]-1H-indazol-4-yl}benzamide]
1.1	0.4	CC(C)(C)c1ccc(-n2ncc3c(NC(=O)c4cc(CNC(=O)C5CC5)ccc4Cl)cccc32)cc1 [Example 14, N-[1-(4-tert-butylphenyl)-1H-indazol-4-yl]-2-chloro-5-{[(cyclopropylcarbonyl)amino]methyl}benzamide]
5.6	7.8	Cc1c(Cl)cccc1-n1ncc2c(NC(=O)c3cc(CNC(=O)C4CC4)ccc3Cl)cccc21 [Example 15, 2-Chloro-N-[1-(3-chloro-2-methylphenyl)-1H-indazol-4-yl]-5-{[(cyclopropylcarbonyl)amino]methyl}benzamide]
17	1.6	O=C(Nc1cccc2c1cnn2-c1ccc(C(F)(F)F)cc1)c1cc(CNC(=O)C(F)(F)F)ccc1Cl [Example 17, 2-Chloro-5-{[(trifluoroacetyl)amino]methyl}-N-{1-[4-(trifluoromethyl)phenyl]-1H-indazol-4-yl}benzamide]
84.7	52.4	CC(=O)NCc1ccc(Cl)c(C(=O)Nc2cccc3c2cnn3-c2ccc(C(F)(F)F)cc2)c1 [Example 18, 5-[(Acetylamino)methyl]-2-chloro-N-{1-[4-(trifluoromethyl)phenyl]-1H-indazol-4-yl}benzamide]
3.8	68	COCC(=O)NCc1ccc(Cl)c(C(=O)Nc2cccc3c2cnn3-c2ccc(C(F)(F)F)cc2)c1 [Example 21, 2-Chloro-5-{[(methoxyacetyl)amino]methyl}-N-{1-[4-(trifluoromethyl)phenyl]-1H-indazol-4-yl}benzamide]
3.3	12.8	O=C(NCc1ccc(Cl)c(C(=O)Nc2cccc3c2cnn3-c2ccc(C(F)(F)F)cc2)c1)c1ccccc1 [Example 22, 2-Chloro-5-{[(phenylcarbonyl)amino]methyl}-N-{1-[4-(trifluoromethyl)phenyl]-1H-indazol-4-yl}benzamide]
3.9	8.6	N#CC1(C(=O)NCc2ccc(Cl)c(C(=O)Nc3cccc4c3cnn4-c3ccc(C(F)(F)F)cc3)c2)CC1 [Example 25, 2-Chloro-5-({[(1-cyanocyclopropyl)carbonyl]amino}methyl)-N-{1-[4-(trifluoromethyl)phenyl]-1H-indazol-4-yl}benzamide]
391	–	CC#CC(=O)NCc1ccc(Cl)c(C(=O)Nc2cccc3c2cnn3-c2ccc(C(F)(F)F)cc2)c1 [Example 42, 5-[(2-Butynoylamino)methyl]-2-chloro-N-{1-[4-(trifluoromethyl)phenyl]-1H-indazol-4-yl}benzamide]

Second part, the compound before the results:

SMILES	IC50 (human mPGES-1) [nM]	IC50 (human A549 cells) [nM]
O=C(Nc1cccc2c1cnn2-c1cccc(C(F)(F)F)c1)c1cc(CNC(=O)C2CC2)ccc1Cl [Example 3, 2-Chloro-5-{[(cyclopropylcarbonyl)amino]methyl}-N-{1-[3-(trifluoromethyl)phenyl]-1H-indazol-4-yl}benzamide]	1.2	0.7
O=C(Nc1cccc2c1cnn2-c1cccnc1)c1cc(CNC(=O)C2CC2)ccc1Cl [Example 4, 2-Chloro-5-{[(cyclopropylcarbonyl)amino]methyl}-N-[1-(pyridin-3-yl)-1H-indazol-4-yl]benzamide hydrochloride]	18.8	–
O=C(Nc1cccc2c1cnn2-c1ccncc1)c1cc(CNC(=O)C2CC2)ccc1Cl [Example 5, 2-Chloro-5-{[(cyclopropylcarbonyl)amino]methyl}-N-[1-(pyridin-4-yl)-1H-indazol-4-yl]benzamide hydrochloride]	9.6	688
Cc1ccc(-n2ncc3c(NC(=O)c4cc(CNC(=O)C5CC5)ccc4Cl)cccc32)cn1 [Example 10, 2-Chloro-5-{[(cvclopropylcarbonyl)amino]methyl}-N-[1-(6-methylpyridin-3-yl)-1H-indazol-4-yl]benzamide hydrochloride]	10	31.2
O=C(Nc1cccc2c1cnn2-c1cncc(C(F)(F)F)c1)c1cc(CNC(=O)C2CC2)ccc1Cl [Example 11, 2-Chloro-5-{[(cvclopropylcarbonyl)amino]methyl}-N-{1-[5-(trifluoromethyl)pyridin-3-yl]-1H-indazol-4-yl}benzamide]	2.9	3.4
COc1ccccc1-n1ncc2c(NC(=O)c3cc(CNC(=O)C4CC4)ccc3Cl)cccc21 [Example 13, 2-Chloro-5-{[(cyclopropylcarbonyl)amino]methyl}-N-[1-(2-methoxyphenyl)-1H-indazol-4-yl]benzamide]	2	505
O=C(Nc1cccc2c1cnn2-c1cccc(C(F)(F)F)c1)c1c(F)ccc(CNC(=O)C2CC2)c1F [Example 16, 3-{[(Cyclopropylcarbonyl)amino]methyl}-2,6-difluoro-N-{1-[3-(trifluoromethyl)phenyl]-1H-indazol-4-yl}benzamide]	6.3	9.7
CCC(=O)NCc1ccc(Cl)c(C(=O)Nc2cccc3c2cnn3-c2ccc(C(F)(F)F)cc2)c1 [Example 19, 2-Chloro-5-[(propanoylamino)methyl]-N-{1-[4-(trifluoromethyl)phenyl]-1H-indazol-4-yl}benzamide]	6.1	1
CC(C)(C)CC(=O)NCc1ccc(Cl)c(C(=O)Nc2cccc3c2cnn3-c2ccc(C(F)(F)F)cc2)c1 [Example 20, 2-Chloro-5-{[(3,3-dimethylbutanoyl)amino]methyl}-N-{1-[4-(trifluoromethyl)phenyl]-1H-indazol-4-yl}benzamide]	< 1	2.8
O=C(Nc1cccc2c1cnn2-c1ccc(C(F)(F)F)cc1)c1cc(CNS(=O)(=O)C2CC2)ccc1Cl [Example 23, 2-Chloro-5-{[(cyclopropylsulfonyl)amino]methyl}-N-{1-[4-(trifluoromethyl)phenyl]-1H-indazol-4-yl}benzamide]	5.2	1.5
CN(C)CC(=O)NCc1ccc(Cl)c(C(=O)Nc2cccc3c2cnn3-c2ccc(C(F)(F)F)cc2)c1 [Example 24, 2-Chloro-5-{[(N,N-dimethylglycyl)amino]methyl}-N-{1-[4-(trifluoromethyl)phenyl]-1H-indazol-4-yl}benzamide hydrochloride]	57.1	46.4
